Experimental data taken from patent US7030213B2, “Conformationally stabilized cell adhesion peptides” (La Jolla Cancer Research Institute, priority 1987, dated 2006).
Primed or numbered codes have the meaning given here. Where no end group is shown, it is not given here. [ ]: non-standard residue; d: D form. Pen′ = Penicillamine

Legend:
[1] = system: attachment of normal rat kidney cells to vitronectin; test: Cell adhesion assay: inhibition of attachment of normal rat kidney cells to vitronectin; assay type: cell-based; conditions: normal rat kidney cells on vitronectin-coated wells, peptide 0 to 10.0 mM, 1 hour at 37° C., FIG. 2
Method: (§1) Fibronectin and vitronectin were purified from human plasma according to the methods of Ruoslahti et al., (1982) Meth. Enz. 82:803; and Hayman et al., (1983) PNAS 80:4003, respectively, both of which are incorporated herein by reference. The adhesion of normal rat kidney cells to fibronectin and vitronectin was assayed as described, in Ruoslahti et al., Meth. Enz. supra. Briefly, 0.1 ml solution of fibronectin or vitronectin at a concentration of 12 μg/ml in 0.1M PBS was placed in each well of 96-well plastic microtiter plates and left for 2 hours at room temperature. The unattached protein was removed by washing three times with PBS.
(§2) One day before the assay, a confluent culture of normal rat kidney cells was split 1:2 using standard tissue culture trypsin. The cells were washed three times with PBS, pH 7.2. […] Before the last centrifugation, a sample was taken and cell numbers and viability by trypan blue exclusion are determined. […]
(§3) The unattached cells were removed simply by removing the medium and washing the wells. […] The cells were then fixed with 3% paraformaldehyde in PBS and stained with 1% toluidine blue, paraformaldehyde in PBS, and attached cells counted. Their number was determined using a cell counter that is capable of counting cells attached to a surface (Dynatech Laboratories, Alexandria, Va.). […]

[2] = system: attachment of normal rat kidney cells to fibronectin; test: Cell adhesion assay: inhibition of attachment of normal rat kidney cells to fibronectin; assay type: cell-based; conditions: normal rat kidney cells on fibronectin-coated wells; peptide 0 to 10.0 mM; 1 hour at 37° C.; FIG. 2
Method: as §1, §2, §3

Substance | inhibition of attachment to vitronectin [1] | inhibition of attachment to fibronectin [2] | molar concentration inhibiting attachment to vitronectin, lower than the linear peptide ([1]; relative to linear peptide) [fold]
Gly-Pen-Gly-Arg-Gly-Asp-Ser-Pro-Cys (G[Pen′]GRGDSPC; cysteine pairing not given here) [linear peptide, non-cyclized, or linear, peptide used as comparator] | inhibited attachment of cells to both substrates at relatively similar concentrations | inhibited attachment of cells to both substrates at relatively similar concentrations | 
Gly-Pen-Gly-Arg-Gly-Asp-Ser-Pro-Cys-Ala [cyclic peptide] |  | ineffective | 10
